Assay results published in PubChem BioAssay AID248 (DTP/NCI, 2004).
Several values for one entry are separate records, joined by “and”; a condition that tells them apart may be missing. Identical values can stand only once. Inconclusive results and toxic doses are left out. Cut-off read from the data, not from the text of the source: active = T/C of 150% or more; inactive = T/C below 125%.

Tested on: L1210 leukemia ip in BDF1 mice, survival T/C
Experiment: NCI In Vivo Anticancer Drug Screen. Data for tumor model L1210 Leukemia (intraperitoneal) in B6D2F1 (BDF1) mice
Details: endpoint: mean survival time, higher = longer survival
Outline: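 Value reflects the ratio of survival in compound-treated mice to survival in vehicle-treated controls, with both groups carrying the same transplanted tumor.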

[1] = dose: 25.0 mg/kg/injection, schedule: Q01DX009 (ip), vehicle: Klucel (hydroxypropylcellulose) (HPC)
[2] = dose: 50.0 mg/kg/injection, schedule: Q01DX009 (ip), vehicle: Klucel (hydroxypropylcellulose) (HPC)
[3] = dose: 100.0 mg/kg/injection, schedule: Q01DX009 (ip), vehicle: Klucel (hydroxypropylcellulose) (HPC)
[4] = dose: 100.0 mg/kg/injection, schedule: Q01DX001 (ip), vehicle: saline
[5] = dose: 200.0 mg/kg/injection, schedule: Q01DX001 (ip), vehicle: saline
[6] = dose: 100.0 mg/kg/injection, schedule: Q01DX001 (ip), vehicle: carboxymethylcellulose (CMC)
[7] = dose: 200.0 mg/kg/injection, schedule: Q01DX001 (ip), vehicle: carboxymethylcellulose (CMC)
[8] = dose: 400.0 mg/kg/injection, schedule: Q01DX001 (ip), vehicle: carboxymethylcellulose (CMC)
[9] = dose: 50.0 mg/kg/injection, schedule: Q04DX003 (ip), vehicle: Klucel (hydroxypropylcellulose) (HPC)
[10] = dose: 100.0 mg/kg/injection, schedule: Q01DX009 (ip), vehicle: saline with Tween-80
[11] = dose: 200.0 mg/kg/injection, schedule: Q01DX009 (ip), vehicle: saline with Tween-80
[12] = dose: 100.0 mg/kg/injection, schedule: Q04DX003 (ip), vehicle: Klucel (hydroxypropylcellulose) (HPC)
[13] = dose: 200.0 mg/kg/injection, schedule: Q04DX003 (ip), vehicle: Klucel (hydroxypropylcellulose) (HPC)
[14] = dose: 400.0 mg/kg/injection, schedule: Q04DX003 (ip), vehicle: Klucel (hydroxypropylcellulose) (HPC)
[15] = dose: 100.0 mg/kg/injection, schedule: Q04DX002 (ip), vehicle: saline with Tween-80
[16] = dose: 200.0 mg/kg/injection, schedule: Q04DX002 (ip), vehicle: saline with Tween-80
[17] = dose: 400.0 mg/kg/injection, schedule: Q04DX002 (ip), vehicle: saline with Tween-80
[18] = dose: 100.0 mg/kg/injection, schedule: Q04DX003 (ip), vehicle: saline with Tween-80
[19] = dose: 200.0 mg/kg/injection, schedule: Q04DX003 (ip), vehicle: saline with Tween-80
[20] = dose: 400.0 mg/kg/injection, schedule: Q04DX003 (ip), vehicle: saline with Tween-80

Measured: T/C

CC(=O)CC(=O)NCCCN1CCCCC1
inactive: dose: 12.5 mg/kg/injection, schedule: Q01DX009 (ip), vehicle: saline with Tween-80 103 % of control | dose: 12.5 mg/kg/injection, schedule: Q04DX003 (ip), vehicle: saline with Tween-80 103 % of control | dose: 25.0 mg/kg/injection, schedule: Q01DX009 (ip), vehicle: saline with Tween-80 100 % of control | dose: 25.0 mg/kg/injection, schedule: Q04DX003 (ip), vehicle: saline with Tween-80 106 % of control | dose: 50.0 mg/kg/injection, schedule: Q04DX003 (ip), vehicle: saline with Tween-80 97 % of control and 103 % of control

CC(=O)/C=N/Nc1ccccc1
inactive: [1] 93 % of control | [2] 97 % of control | dose: 50.0 mg/kg/injection, schedule: Q04DX003 (ip), vehicle: carboxymethylcellulose (CMC) 110 % of control | [3] 97 % of control | dose: 100.0 mg/kg/injection, schedule: Q04DX003 (ip), vehicle: carboxymethylcellulose (CMC) 106 % of control

O=C1OC(=O)c2c(Br)cccc21
inactive: dose: 5.0 mg/kg/injection, schedule: Q04DX003 (ip), vehicle: Klucel (hydroxypropylcellulose) (HPC) 102 % of control | dose: 10.0 mg/kg/injection, schedule: Q04DX003 (ip), vehicle: Klucel (hydroxypropylcellulose) (HPC) 100 % of control | dose: 20.0 mg/kg/injection, schedule: Q04DX003 (ip), vehicle: Klucel (hydroxypropylcellulose) (HPC) 114 % of control

CC(=O)/C(=C(/C)OB(F)F)C(C)C
inactive: dose: 50.0 mg/kg/injection, schedule: Q01DX001 (ip), vehicle: saline 102 % of control | [4] 104 % of control | [5] 102 % of control

C1=CCC2CSCC2C1 (centres undefined)
inactive: dose: 75.0 mg/kg/injection, schedule: Q01DX009 (ip), vehicle: saline sonified 98 % of control | dose: 150.0 mg/kg/injection, schedule: Q01DX009 (ip), vehicle: saline sonified 98 % of control

O=C(O)c1ccc(C(Cl)C(Cl)(Cl)Cl)cc1O (centres undefined)
inactive: [6] 92 % of control | [7] 94 % of control | [8] 96 % of control

O=C1C(=Cc2ccc([N+](=O)[O-])cc2)C(=O)c2ccccc21
inactive: dose: 12.5 mg/kg/injection, schedule: Q01DX009 (ip), vehicle: Klucel (hydroxypropylcellulose) (HPC) 93 % of control | dose: 12.5 mg/kg/injection, schedule: Q04DX003 (ip), vehicle: Klucel (hydroxypropylcellulose) (HPC) 97 % of control | [1] 88 % of control | dose: 25.0 mg/kg/injection, schedule: Q04DX003 (ip), vehicle: Klucel (hydroxypropylcellulose) (HPC) 90 % of control | [2] 98 % of control | [9] 93 % of control

O=C(c1ccccc1)C(Br)[N+](=O)[O-] (centres undefined)
inactive: [4] 100 % of control | [5] 103 % of control | dose: 400.0 mg/kg/injection, schedule: Q01DX001 (ip), vehicle: saline 96 % of control

CC1CCC(C(O)(C(=O)O)C2CCCCC2)CC1 (centres undefined)
inactive: dose: 75.0 mg/kg/injection, schedule: Q01DX001 (ip), vehicle: other 104 % of control | dose: 150.0 mg/kg/injection, schedule: Q01DX001 (ip), vehicle: other 101 % of control

c1c[nH]c(N=Nc2ccc(N=Nc3ncc[nH]3)cc2)n1
inactive: dose: 50.0 mg/kg/injection, schedule: Q01DX009 (ip), vehicle: saline with Tween-80 100 % of control | [10] 94 % of control | [11] 94 % of control

C=CCc1c[nH]c(=O)[nH]c1=O
inactive: [9] 100 % of control | [12] 108 % of control and 91 % of control | [13] 97 % of control and 100 % of control | [14] 90 % of control

Cc1ccc(C)c(NC(=O)Oc2ccc(Cl)cc2C)c1
inactive: dose: 100.0 mg/kg/injection, schedule: Q01DX001 (ip), vehicle: saline with Tween-80 100 % of control and 91 % of control | [10] 86 % of control | [15] 92 % of control | dose: 200.0 mg/kg/injection, schedule: Q01DX001 (ip), vehicle: saline with Tween-80 98 % of control | [11] 100 % of control and 89 % of control | [16] 92 % of control | dose: 400.0 mg/kg/injection, schedule: Q01DX001 (ip), vehicle: saline with Tween-80 94 % of control and 100 % of control | dose: 400.0 mg/kg/injection, schedule: Q01DX009 (ip), vehicle: saline with Tween-80 99 % of control and 100 % of control | [17] 89 % of control

O=C(O)/C(F)=C/c1ccccc1
inactive: dose: 50.0 mg/kg/injection, schedule: Q01DX001 (ip), vehicle: carboxymethylcellulose (CMC) 111 % of control | [6] 103 % of control

COc1ccc(CN(CCc2ccc(O)cc2)C(=O)C(F)(F)F)cc1O
inactive: dose: 100.0 mg/kg/injection, schedule: Q01DX001 (ip), vehicle: Klucel (hydroxypropylcellulose) (HPC) 91 % of control | dose: 200.0 mg/kg/injection, schedule: Q01DX001 (ip), vehicle: Klucel (hydroxypropylcellulose) (HPC) 89 % of control | dose: 400.0 mg/kg/injection, schedule: Q01DX001 (ip), vehicle: Klucel (hydroxypropylcellulose) (HPC) 87 % of control

CC(C)c1c[nH]c(=O)[nH]c1=O
inactive: dose: 100.0 mg/kg/injection, schedule: Q01DX009 (ip), vehicle: other 102 % of control | dose: 100.0 mg/kg/injection, schedule: Q04DX003 (ip), vehicle: saline 91 % of control | dose: 200.0 mg/kg/injection, schedule: Q01DX009 (ip), vehicle: other 96 % of control | dose: 200.0 mg/kg/injection, schedule: Q04DX003 (ip), vehicle: saline 93 % of control | dose: 400.0 mg/kg/injection, schedule: Q01DX009 (ip), vehicle: other 102 % of control | dose: 400.0 mg/kg/injection, schedule: Q04DX003 (ip), vehicle: saline 91 % of control

CC1CCCN(c2ccc([N+](=O)[O-])cc2[N+](=O)[O-])C1 (centres undefined)
inactive: [3] 105 % of control | [12] 99 % of control | dose: 200.0 mg/kg/injection, schedule: Q01DX009 (ip), vehicle: Klucel (hydroxypropylcellulose) (HPC) 96 % of control | [13] 92 % of control | dose: 400.0 mg/kg/injection, schedule: Q01DX009 (ip), vehicle: Klucel (hydroxypropylcellulose) (HPC) 99 % of control | [14] 97 % of control

CCNC(=O)OCCc1c2ccccc2[n+]([O-])c2ccccc12
inactive: [18] 96 % of control | [19] 102 % of control | [20] 90 % of control

CC1CC(C)(C)N=C(C(C)(C)c2ccccc2)O1 (centres undefined)
inactive: dose: 100.0 mg/kg/injection, schedule: Q04DX003 (ip), vehicle: saline sonified 102 % of control | dose: 200.0 mg/kg/injection, schedule: Q04DX003 (ip), vehicle: saline sonified 103 % of control | dose: 400.0 mg/kg/injection, schedule: Q04DX003 (ip), vehicle: saline sonified 98 % of control

Nc1nc(C=O)c(Cc2ccc3ccccc3c2)c(=O)[nH]1
inactive: [18] 100 % of control | [19] 108 % of control | [20] 110 % of control

Cc1ccc(S(=O)(=O)N2C=Cc3ccccc3CC2)cc1
inactive: [6] 107 % of control | [7] 100 % of control | [8] 112 % of control

CCCCCCCCCCCCCCCCn1cnc2ncnc(Cl)c21
inactive: dose: 12.5 mg/kg/injection, schedule: Q01DX005 (ip), vehicle: other 100 % of control | dose: 25.0 mg/kg/injection, schedule: Q01DX005 (ip), vehicle: other 102 % of control | dose: 50.0 mg/kg/injection, schedule: Q01DX005 (ip), vehicle: other 98 % of control | dose: 100.0 mg/kg/injection, schedule: Q01DX005 (ip), vehicle: other 105 % of control | dose: 200.0 mg/kg/injection, schedule: Q01DX005 (ip), vehicle: other 100 % of control

NS(=O)(=O)c1ccc(Cl)c([N+](=O)[O-])c1
inactive: [15] 98 % of control | [16] 91 % of control | [17] 91 % of control

Cc1cc(C)c(C(=O)c2ccccc2)c(=O)o1
inactive: dose: 10.0 mg/kg/injection, schedule: Q01DX001 (ip), vehicle: carboxymethylcellulose (CMC) 100 % of control | dose: 20.0 mg/kg/injection, schedule: Q01DX001 (ip), vehicle: carboxymethylcellulose (CMC) 100 % of control | dose: 40.0 mg/kg/injection, schedule: Q01DX001 (ip), vehicle: carboxymethylcellulose (CMC) 97 % of control | [8] 103 % of control
